Experimental data published in patent publication US10753941B2, “Biocompatible nanoparticles with aggregation induced emission characteristics as fluorescent bioprobes and methods of using the same for in vitro and in vivo imaging” (The Hong Kong University of Science and Technology, priority 2011, dated 2020).
Read-outs that look alike come from different tables or passages of the source. Residues, ends and D or L forms follow the SMILES beside them. *: point of attachment. X1 = O=C(CCCc1cn(Cc2ccc(C(=C(c3ccccc3)c3ccccc3)c3ccccc3)cc2)nn1)*

Key:
caspase-7 = molecular target: T1, caspase-7 (Homo sapiens, UniProt P55210); assay: Caspase turn-on assay of AcDEVDK-TPE; assay type: biochemical
T1 construct: purchased R&D Systems
T1 sequence (P55210 24-198 limits assumed): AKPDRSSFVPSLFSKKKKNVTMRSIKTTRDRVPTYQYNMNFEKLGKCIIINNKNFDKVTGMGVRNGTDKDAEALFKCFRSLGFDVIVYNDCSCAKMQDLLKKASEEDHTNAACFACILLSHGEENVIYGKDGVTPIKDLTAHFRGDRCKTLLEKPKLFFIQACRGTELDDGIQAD
T1 sequence (P55210 207-303 limits assumed): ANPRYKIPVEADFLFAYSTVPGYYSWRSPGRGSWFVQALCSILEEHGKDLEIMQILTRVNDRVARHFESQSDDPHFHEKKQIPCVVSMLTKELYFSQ
Text: (§1) Cleavage of the peptide substrates AcDEVDK-TPE by caspase-3 or caspase-7 was monitored in quartz cells or in black flatbottom polypropylene 384-well plates (Nunc, USA). The corresponding concentrations of substrate and enzymes were used for each assay. Enzymatic cleavage of the substrates was monitored by fluorescence increase (excitation and emission wavelengths at 312 nm and 480 nm respectively) with on a Perkin-Elmer LS 55 spectrofluorometer or a Synergy TM 2 multi-mode microplate reader (Biotek Instruments).

caspase-3 [1] = molecular target: T2, caspase-3 (Homo sapiens, UniProt P42574); assay: Caspase turn-on assay of AcDEVDK-TPE; assay type: biochemical
T2 construct: purchased R&D Systems
T2 sequence (P42574 29-175 limits assumed): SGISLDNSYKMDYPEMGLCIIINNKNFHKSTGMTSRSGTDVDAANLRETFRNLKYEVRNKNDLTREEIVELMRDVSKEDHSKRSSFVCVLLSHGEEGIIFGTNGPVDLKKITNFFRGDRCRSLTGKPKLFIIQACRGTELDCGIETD
T2 sequence (P42574 176-277 limits assumed): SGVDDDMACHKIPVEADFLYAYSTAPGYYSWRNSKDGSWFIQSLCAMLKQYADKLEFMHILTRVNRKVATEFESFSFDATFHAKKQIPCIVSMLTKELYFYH
Text: as §1

HeLa cells = assay: Apoptosis imaging in live cells with AcDEVDK-TPE; assay type: cell-based, human; conditions: 5 μM probe
Method: The cells were cultured in the chambers (LAB-TEK, Chambered Coverglass System) at 37° C., respectively. After 80% confluence, the adherent cells were washed twice with 1×PBS buffer. The AcDEVD-TPE solution (5 μM, 0.3 mL) was then added to the chamber. After incubation for 2 h at 37° C., cells were washed two times with 1×PBS buffer. To induce apoptosis, cells were incubated with 1.0 μM of staurosporine for 1 hr and then imaged immediately by confocal laser scanning microscope (CLSM, Zeiss LSM 410, Jena, Germany) with imaging software (Fluoview FV500). The images are analyzed by ImageJ 1.43× program (developed by NIH).

[2] = system: BSA, HSA, Lysozyme, Pepsin and Trypsin; assay: Selectivity of AcDEVDK-TPE against other proteins; assay type: biochemical; conditions: 20 μg mL^−1 protein, 5 μM probe
Method: AcDEVDK-TPE was treated with five other enzymes which are widely present in cells, such as BSA, HSA, Lysozyme, Pepsin and Trypsin under the same conditions.

[3] = Water solubility / aggregation of probes in water (LLS, PL); assay type: physicochemical; conditions: for average diameter of nanoaggregates in water (LLS): DMSO/water v/v=1:199, 10 μM
Text: FIG. 32A illustrates the UV-vis absorption spectra of BATPS (5) and TPS-2cRGD. Both have a similar absorption profile with the maximum at 356 nm. The corresponding photoluminescence (PL) spectra are shown in FIG. 32B, along with the photographs taken under UV irradiation. It is known that AIE fluorogens are virtually non-fluorescent in good solvents but emit intensely when aggregated in poor solvents.
It is well known that AIE dye is virtually non-luminescent in good solvents but emits intensely when aggregated in its poor solvents. […] The excited states are readily annihilated by the intramolecular rotations of phenyl rings. Therefore, very low fluorescence was observed.

MCF-7 cancer cells = assay: Long term cellular tracking with two-photon fluorescence imaging; assay type: cell-based; conditions: 1 μM, 4 h incubation; FTNPs two-photon 800 nm, MTR one-photon 560 nm
Method: The performance of FTNPs in MCF-7 cancer cell tracking was investigated and compared with that of commercial Mitotracker red (MTR).
MCF-7 breast cancer cells were cultured in Dulbecco's Modified Eagle Medium (DMEM) containing 10% fetal bovine serum and 1% penicillin streptomycin at 37° C. in a humidified environment containing 5% CO2.
Prior to the experiment, MCF-7 breast cancer cells were pre-cultured until confluence was reached. After incubation with FTNPs and Mitotracker red (MTR) in DMEM medium (FBS-free) at 1 μM T1 and MTR for 4 h at 37° C., respectively, the corresponding cells were detached by 1× tripsin and suspended in culture medium with different cell densities. The cells were then cultured on round coverslip in 35 mm petri dishes for 0, 1, 2, 3, 4 and 5 days, respectively. After designated time intervals, the medium was removed and the adherent cells were washed twice with 1×PBS buffer, followed by fixation using 75% ethanol for 20 minutes. The cells were further washed twice with 1×PBS buffer and the coverslips were then mounted on glass slides using mounting medium in purpose of long-term storage. […] The detection of two-photon excited fluorescence of FTNPs was achieved by excitation at 800 nm with a 600-800 nm bandpass filter. On the other hand, the one-photon excited fluorescence signal from MTR was collected with a 600-800 nm bandpass filter upon 560 nm excitation.

human integrin αvβ3 = molecular target: T3, human integrin αvβ3 (Homo sapiens, UniProt P05106+P06756); assay: Titration of TPS-2cRGD with integrin (fluorescence turn-on); assay type: binding
T3 construct: purchased ImmunoCell
T3 sequence (P06756 31-1048): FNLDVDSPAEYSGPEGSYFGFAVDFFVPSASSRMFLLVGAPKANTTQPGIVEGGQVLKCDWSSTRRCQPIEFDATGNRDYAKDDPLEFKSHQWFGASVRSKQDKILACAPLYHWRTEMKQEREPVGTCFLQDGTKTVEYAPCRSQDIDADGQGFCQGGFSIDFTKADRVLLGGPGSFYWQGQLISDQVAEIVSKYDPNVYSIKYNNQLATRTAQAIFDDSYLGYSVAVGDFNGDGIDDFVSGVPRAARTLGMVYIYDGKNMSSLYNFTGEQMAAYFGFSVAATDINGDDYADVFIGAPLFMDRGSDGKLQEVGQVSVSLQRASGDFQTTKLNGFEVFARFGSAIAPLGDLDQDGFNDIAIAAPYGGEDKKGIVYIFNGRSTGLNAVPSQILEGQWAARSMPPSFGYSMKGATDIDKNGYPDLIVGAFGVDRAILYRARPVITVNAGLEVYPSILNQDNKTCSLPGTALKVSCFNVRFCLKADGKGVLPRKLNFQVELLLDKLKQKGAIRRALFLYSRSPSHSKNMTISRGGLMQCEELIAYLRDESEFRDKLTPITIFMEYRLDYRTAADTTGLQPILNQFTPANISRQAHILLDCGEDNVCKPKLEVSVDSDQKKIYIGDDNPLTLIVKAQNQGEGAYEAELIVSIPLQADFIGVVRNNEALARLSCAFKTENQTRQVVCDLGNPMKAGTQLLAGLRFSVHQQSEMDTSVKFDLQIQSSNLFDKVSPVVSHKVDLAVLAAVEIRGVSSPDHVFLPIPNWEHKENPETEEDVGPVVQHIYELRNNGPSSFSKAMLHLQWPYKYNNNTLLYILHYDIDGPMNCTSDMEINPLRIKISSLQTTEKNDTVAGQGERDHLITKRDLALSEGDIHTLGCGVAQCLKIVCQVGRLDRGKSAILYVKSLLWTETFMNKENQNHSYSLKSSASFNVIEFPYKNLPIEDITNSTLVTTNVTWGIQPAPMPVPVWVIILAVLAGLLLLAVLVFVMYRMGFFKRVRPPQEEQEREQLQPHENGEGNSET
T3 sequence (P05106 27-788): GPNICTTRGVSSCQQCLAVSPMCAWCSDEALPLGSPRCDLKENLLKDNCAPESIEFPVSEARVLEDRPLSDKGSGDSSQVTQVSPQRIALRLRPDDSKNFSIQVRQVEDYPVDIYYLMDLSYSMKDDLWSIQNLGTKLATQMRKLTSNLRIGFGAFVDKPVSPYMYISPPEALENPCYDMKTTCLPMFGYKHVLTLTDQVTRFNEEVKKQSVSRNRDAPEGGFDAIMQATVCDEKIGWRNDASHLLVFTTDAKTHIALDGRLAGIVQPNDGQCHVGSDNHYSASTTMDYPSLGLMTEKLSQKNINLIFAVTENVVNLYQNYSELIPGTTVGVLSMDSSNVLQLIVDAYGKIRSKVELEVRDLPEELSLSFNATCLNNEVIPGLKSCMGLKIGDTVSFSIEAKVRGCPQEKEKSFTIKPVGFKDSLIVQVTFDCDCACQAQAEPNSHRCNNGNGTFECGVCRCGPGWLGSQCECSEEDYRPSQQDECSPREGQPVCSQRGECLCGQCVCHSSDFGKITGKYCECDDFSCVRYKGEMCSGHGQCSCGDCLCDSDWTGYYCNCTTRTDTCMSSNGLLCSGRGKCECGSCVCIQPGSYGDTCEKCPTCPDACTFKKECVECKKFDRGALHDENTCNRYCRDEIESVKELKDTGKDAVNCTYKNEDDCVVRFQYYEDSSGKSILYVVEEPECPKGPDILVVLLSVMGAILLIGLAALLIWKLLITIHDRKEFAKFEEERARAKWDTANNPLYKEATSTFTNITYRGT
Method: (§2) 5 μL of the protein stock solution was diluted with 40 μL of 1×PBS buffer (pH 7.4). 5 μL of TPS-2cRGD (10 μM) was then added and the reaction mixture was incubated at room temperature for 30 min. The reaction mixture was then diluted to a total of 300 μL with deionized water for photoluminescence measurement. The solution was excited at 356 nm, and the emission was collected from 380 to 650 nm.

[4] = system: HT-29 colon cancer cells with overexpressed integrin αvβ3; assay: Confocal imaging at 4° C. with TPS-2cRGD; assay type: cell-based
Method: (§3) Before the detection of integrin αvβ3, HT-29 and MCF-7 cells were cultured in the chambers (LAB-TEK, Chambered Coverglass System) at 37° C., respectively. After 80% confluence, the adherent cells were washed twice with 1×PBS buffer. The TPS-2cRGD solution (2 μM, 0.3 mL) was then added to the chamber. After incubation for 30 min at 4° C., cells were washed two times with 1×PBS buffer and then treated with membrane tracker for 10 min and further washed twice with 1×PBS buffer. The cells were then imaged immediately by confocal laser scanning microscope (CLSM, Zeiss LSM 410, Jena, Germany) with imaging software (Fluoview FV500). The images are analyzed by ImageJ 1.43× program (developed by NIH). The images were taken upon excitation at 405 nm (5% laser power) with a band pass 505-525 nm filter for the probe, and 543 nm (5% laser power) with a band pass 575-635 nm filter for the membrane tracker.

[5] = system: MCF7 breast cancer cells with low integrin αvβ3 expression; assay: Confocal imaging at 4° C. with TPS-2cRGD; assay type: cell-based; conditions: 2 μM, 30 min
Method: as §3

HT-29 cells = assay: Real-time uptake imaging of TPS-2cRGD; assay type: cell-based; conditions: 2 μM, room temperature
Method: HT-29 cells were cultured in the 8-wells chambers (LAB-TEK, Chambered Coverglass System) at 37° C. After 80% confluence, the adherent cells were washed twice with 1×PBS buffer. The TPS-2cRGD solution (2 μM, 0.3 mL) and a small amount of membrane tracker were then added to the chamber. The chambers were placed on the microscope platform immediately and the microscope focused on a collection of cells. The fluorescence images (405 nm excitation and with a band pass 505-525 nm filter for the probe, and 543 nm excitation with a band pass 575-635 nm filter for the membrane tracker) acquired every 5 min.

[6] = system: lysozyme, papain, trypsin and BSA; assay: Titration of TPS-2cRGD with other proteins (selectivity); assay type: binding; conditions: 100 μg mL^−1 protein
Method: as §2

[7] = MTT cytotoxicity of TPS-2cRGD; assay type: cell-based; conditions: human, HT-29 cancer cells; 2, 5 and 10 μM for 12, 24 and 48 h; read-out: metabolic viability
Method: Methylthiazolyldiphenyl-tetrazolium (MTT) assays were used to assess the metabolic activity of HT-29 cancer cells to study the cytotoxicity of TPS-2cRGD. HT-29 cells were seeded in 96-well plates (Costar, Ill., USA) at an intensity of 4×10^4 cells mL^−1. After 24 h incubation, the medium was replaced by the TPS-2cRGD suspension at concentrations of 2, 5, and 10 μM, and the cells were then incubated for 12, 24 and 48 h, respectively. After the designated time intervals, the wells were washed twice with 1×PBS buffer and 100 μL of freshly prepared MTT (0.5 mg mL^−1) solution in culture medium was added into each well. The MTT medium solution was carefully removed after 3 h incubation in the incubator at 37° C. DMSO (100 μL) was then added into each well and the plate was gently shaken to dissolve all the precipitates formed. The absorbance of MTT at 570 nm was monitored by the microplate reader (Genios Tecan). Cell viability was expressed by the ratio of absorbance of the cells incubated with TPS-2cRGD suspension to that of the cells incubated with culture medium only.

caspase-3 [8] = molecular target: T2, caspase-3; assay: Caspase-3 turn-on and hydrolysis of E/Z-TPE-2DEVD; assay type: biochemical; conditions: for fluorescence turn-on with caspase-3: 10 μM probe, PIPES buffer, caspase-3 100 pM, 37° C.; for rate of enzyme activated hydrolysis (HPLC): recombinant caspase-3 in buffer
Method: Both have a similar absorption profile with an obvious absorbance in the 270-380 nm range.
The enzyme kinetic studies by incubating recombinant caspase-3 with E/Z-TPE-2DEVD in buffer at 37° C. were subsequently performed, and the changes in probe hydrolysis were monitored with HPLC. DMSO stock solutions of TPE-2DEVD were diluted with caspase-3assay buffer (50 mM PIPES, 100 mM NaCl, 1 mM EDTA, 0.1% w/v CHAPS, 25% w/v sucrose, pH=7.2) to make 10 μM working solutions. 5 μL of the recombinant caspase-3 (˜0.04 μg/μL stock solution in assay buffer) was added into the above working solution. The reaction mixture was incubated at room temperature for 60 min and was then diluted to a total of 300 μL with deionized water for photoluminescence measurement. The solution was excited at 312 nm, and the emission was collected from 360 to 600 nm.

[9] = system: caspase-3, pepsin, BSA, trypsin, papain and lysozyme; conditions: protein 100 pM, identical conditions
Method: To further investigate the probe selectivity, Z-TPE-2DEVD was treated with several proteins, such as caspase-3, pepsin, BSA, trypsin, papain and lysozyme, under identical conditions.

[10] = inferred from weak fluorescence / LLS

CC(=O)N[C@@H](CC(=O)O)C(=O)N[C@@H](CCC(=O)O)C(=O)N[C@H](C(=O)N[C@@H](CC(=O)O)C(=O)N[C@@H](CCCCNC(=O)CCCc1cn(Cc2ccc(C(=C(c3ccccc3)c3ccccc3)c3ccccc3)cc2)nn1)C(N)=O)C(C)C [AcDEVDK-TPE] (Ac-DEVDK(X1)-NH2)
fluorescence on incubation with caspase-7 (caspase-7; 0 to 120 min): time-dependent increase in fluorescence
fluorescence with caspase-7 pretreated with inhibitor (caspase-7; 10 μM caspase inhibitor): no fluorescence turn-on
fluorescence on incubation with caspase-3 (caspase-3 [1]; 0 to 120 min): time-dependent increase in fluorescence
fluorescence enhancement with caspase-3 (caspase-3 [1]; 5 μM probe, 200 pM caspase-3): up to ten-fold fluorescence enhancement
fluorescence with caspase-3 pretreated with inhibitor (caspase-3 [1]; 10 μM caspase inhibitor): no fluorescence turn-on
fluorescence in nonapoptotic cells (HeLa cells): very weak green fluorescence
fluorescence in apoptotic cells (HeLa cells; apoptosis induced with staurosporine): strong green fluorescence
change of PL intensity with other proteins [2]: very little change of PL intensity
solubility in water [3]: good solubility in water

C[Si]1(C)C(c2ccc(CN=[N+]=[N-])cc2)=C(c2ccccc2)C(c2ccccc2)=C1c1ccc(CN=[N+]=[N-])cc1 [BATPS, 1,1-dimethyl-2,5-bis[4-(azidomethyl)phenyl]-3,4-diphenylsilole]
average diameter of nanoaggregates in water (LLS) [3]: 103 nm

ClCc1ccc(C2=c3cc4c5c(c3Oc3c2cc2c6c3CCCN6CCC2)CCC[N+]=5CCC4)cc1.[Cl-] [MTR]
time over which fluorescence in treated cells is sustained / detectable (MCF-7 cancer cells): 1 days

C[Si]1(C)C(c2ccc(Cn3cc(C[C@@H]4NC(=O)[C@@H](Cc5ccccc5)NC(=O)[C@H](CC(=O)O)NC(=O)CNC(=O)[C@H](CCCNC(=N)N)NC4=O)nn3)cc2)=C(c2ccccc2)C(c2ccccc2)=C1c1ccc(Cn2cc(C[C@@H]3NC(=O)[C@@H](Cc4ccccc4)NC(=O)[C@H](CC(=O)O)NC(=O)CNC(=O)[C@H](CCCNC(=N)N)NC3=O)nn2)cc1 [TPS-2cRGD]
fluorescence enhancement on incubation with integrin αvβ3 (human integrin αvβ3; 10 μM probe, integrin 0 to 100 μg mL^−1): up to a seven-fold fluorescence enhancement
limit of detection for integrin αvβ3 in solution (human integrin αvβ3; three times the standard deviation): 4 µg/mL
fluorescent signal of live cells (CLSM) ([4]; 2 μM, 30 min, 4° C.): strong fluorescent signal
fluorescent signal after pre-treatment with free cyclic RGD peptide ([4]; 10 μM cyclic RGD peptide, then 2 μM probe): significantly reduced
fluorescent signal of live cells (CLSM) [5]: very weak fluorescence
incubation time after which the probe is gradually internalized within cells (HT-29 cells): > 25 min
change of PL intensity with other proteins [6]: very little change of PL intensity
viability [7]: ~100%
average diameter of nanoaggregates in water (LLS) [3]: no detectable signal
solubility in water [3, 10]: good solubility in water

E-TPE-2DEVD: stereoisomer of Asp-Glu-Val-Asp (DEVD) peptide-conjugated TPE probe (TPE-2DEVD)
fluorescence turn-on with caspase-3 (caspase-3 [8]): strong fluorescence signals
rate of enzyme activated hydrolysis (HPLC) (caspase-3 [8]): faster
solubility in water [3, 10]: good solubility in water

Z-TPE-2DEVD: stereoisomer of Asp-Glu-Val-Asp (DEVD) peptide-conjugated TPE probe (TPE-2DEVD)
fluorescence turn-on with caspase-3 (caspase-3 [8]): stronger fluorescence enhancement
rate of enzyme activated hydrolysis (HPLC) (caspase-3 [8]): slower hydrolysis rate
probe selectivity, changes in (I−I0)/I0 [9]: specific probe for caspase-3
solubility in water [3, 10]: good solubility in water
